Laboratory results from ChEMBL document CHEMBL5726098, “Arylquinazolines” (2019).

Biological target: DNA-dependent protein kinase catalytic subunit (Homo sapiens, UniProt P78527)
Assay: DNA-PK Assay (Biochemical): The kinase assay was carried out in streptavidin-coated […] microtitre flashplates. […] The reaction was stopped using 50 μl/well of 200 mM EDTA. After incubation for a further 30 min at room temperature, the liquid was removed. Each well was washed three times with 100 μl of 0.9% saline solution. A nonspecific reaction (blank value) was determined using 10 μM of an innate kinase inhibitor. The radioactivity measurement was carried out using a TopCount. IC50 values were calculated in RS1.

Chain of DNA-dependent protein kinase catalytic subunit (P78527 whole entry): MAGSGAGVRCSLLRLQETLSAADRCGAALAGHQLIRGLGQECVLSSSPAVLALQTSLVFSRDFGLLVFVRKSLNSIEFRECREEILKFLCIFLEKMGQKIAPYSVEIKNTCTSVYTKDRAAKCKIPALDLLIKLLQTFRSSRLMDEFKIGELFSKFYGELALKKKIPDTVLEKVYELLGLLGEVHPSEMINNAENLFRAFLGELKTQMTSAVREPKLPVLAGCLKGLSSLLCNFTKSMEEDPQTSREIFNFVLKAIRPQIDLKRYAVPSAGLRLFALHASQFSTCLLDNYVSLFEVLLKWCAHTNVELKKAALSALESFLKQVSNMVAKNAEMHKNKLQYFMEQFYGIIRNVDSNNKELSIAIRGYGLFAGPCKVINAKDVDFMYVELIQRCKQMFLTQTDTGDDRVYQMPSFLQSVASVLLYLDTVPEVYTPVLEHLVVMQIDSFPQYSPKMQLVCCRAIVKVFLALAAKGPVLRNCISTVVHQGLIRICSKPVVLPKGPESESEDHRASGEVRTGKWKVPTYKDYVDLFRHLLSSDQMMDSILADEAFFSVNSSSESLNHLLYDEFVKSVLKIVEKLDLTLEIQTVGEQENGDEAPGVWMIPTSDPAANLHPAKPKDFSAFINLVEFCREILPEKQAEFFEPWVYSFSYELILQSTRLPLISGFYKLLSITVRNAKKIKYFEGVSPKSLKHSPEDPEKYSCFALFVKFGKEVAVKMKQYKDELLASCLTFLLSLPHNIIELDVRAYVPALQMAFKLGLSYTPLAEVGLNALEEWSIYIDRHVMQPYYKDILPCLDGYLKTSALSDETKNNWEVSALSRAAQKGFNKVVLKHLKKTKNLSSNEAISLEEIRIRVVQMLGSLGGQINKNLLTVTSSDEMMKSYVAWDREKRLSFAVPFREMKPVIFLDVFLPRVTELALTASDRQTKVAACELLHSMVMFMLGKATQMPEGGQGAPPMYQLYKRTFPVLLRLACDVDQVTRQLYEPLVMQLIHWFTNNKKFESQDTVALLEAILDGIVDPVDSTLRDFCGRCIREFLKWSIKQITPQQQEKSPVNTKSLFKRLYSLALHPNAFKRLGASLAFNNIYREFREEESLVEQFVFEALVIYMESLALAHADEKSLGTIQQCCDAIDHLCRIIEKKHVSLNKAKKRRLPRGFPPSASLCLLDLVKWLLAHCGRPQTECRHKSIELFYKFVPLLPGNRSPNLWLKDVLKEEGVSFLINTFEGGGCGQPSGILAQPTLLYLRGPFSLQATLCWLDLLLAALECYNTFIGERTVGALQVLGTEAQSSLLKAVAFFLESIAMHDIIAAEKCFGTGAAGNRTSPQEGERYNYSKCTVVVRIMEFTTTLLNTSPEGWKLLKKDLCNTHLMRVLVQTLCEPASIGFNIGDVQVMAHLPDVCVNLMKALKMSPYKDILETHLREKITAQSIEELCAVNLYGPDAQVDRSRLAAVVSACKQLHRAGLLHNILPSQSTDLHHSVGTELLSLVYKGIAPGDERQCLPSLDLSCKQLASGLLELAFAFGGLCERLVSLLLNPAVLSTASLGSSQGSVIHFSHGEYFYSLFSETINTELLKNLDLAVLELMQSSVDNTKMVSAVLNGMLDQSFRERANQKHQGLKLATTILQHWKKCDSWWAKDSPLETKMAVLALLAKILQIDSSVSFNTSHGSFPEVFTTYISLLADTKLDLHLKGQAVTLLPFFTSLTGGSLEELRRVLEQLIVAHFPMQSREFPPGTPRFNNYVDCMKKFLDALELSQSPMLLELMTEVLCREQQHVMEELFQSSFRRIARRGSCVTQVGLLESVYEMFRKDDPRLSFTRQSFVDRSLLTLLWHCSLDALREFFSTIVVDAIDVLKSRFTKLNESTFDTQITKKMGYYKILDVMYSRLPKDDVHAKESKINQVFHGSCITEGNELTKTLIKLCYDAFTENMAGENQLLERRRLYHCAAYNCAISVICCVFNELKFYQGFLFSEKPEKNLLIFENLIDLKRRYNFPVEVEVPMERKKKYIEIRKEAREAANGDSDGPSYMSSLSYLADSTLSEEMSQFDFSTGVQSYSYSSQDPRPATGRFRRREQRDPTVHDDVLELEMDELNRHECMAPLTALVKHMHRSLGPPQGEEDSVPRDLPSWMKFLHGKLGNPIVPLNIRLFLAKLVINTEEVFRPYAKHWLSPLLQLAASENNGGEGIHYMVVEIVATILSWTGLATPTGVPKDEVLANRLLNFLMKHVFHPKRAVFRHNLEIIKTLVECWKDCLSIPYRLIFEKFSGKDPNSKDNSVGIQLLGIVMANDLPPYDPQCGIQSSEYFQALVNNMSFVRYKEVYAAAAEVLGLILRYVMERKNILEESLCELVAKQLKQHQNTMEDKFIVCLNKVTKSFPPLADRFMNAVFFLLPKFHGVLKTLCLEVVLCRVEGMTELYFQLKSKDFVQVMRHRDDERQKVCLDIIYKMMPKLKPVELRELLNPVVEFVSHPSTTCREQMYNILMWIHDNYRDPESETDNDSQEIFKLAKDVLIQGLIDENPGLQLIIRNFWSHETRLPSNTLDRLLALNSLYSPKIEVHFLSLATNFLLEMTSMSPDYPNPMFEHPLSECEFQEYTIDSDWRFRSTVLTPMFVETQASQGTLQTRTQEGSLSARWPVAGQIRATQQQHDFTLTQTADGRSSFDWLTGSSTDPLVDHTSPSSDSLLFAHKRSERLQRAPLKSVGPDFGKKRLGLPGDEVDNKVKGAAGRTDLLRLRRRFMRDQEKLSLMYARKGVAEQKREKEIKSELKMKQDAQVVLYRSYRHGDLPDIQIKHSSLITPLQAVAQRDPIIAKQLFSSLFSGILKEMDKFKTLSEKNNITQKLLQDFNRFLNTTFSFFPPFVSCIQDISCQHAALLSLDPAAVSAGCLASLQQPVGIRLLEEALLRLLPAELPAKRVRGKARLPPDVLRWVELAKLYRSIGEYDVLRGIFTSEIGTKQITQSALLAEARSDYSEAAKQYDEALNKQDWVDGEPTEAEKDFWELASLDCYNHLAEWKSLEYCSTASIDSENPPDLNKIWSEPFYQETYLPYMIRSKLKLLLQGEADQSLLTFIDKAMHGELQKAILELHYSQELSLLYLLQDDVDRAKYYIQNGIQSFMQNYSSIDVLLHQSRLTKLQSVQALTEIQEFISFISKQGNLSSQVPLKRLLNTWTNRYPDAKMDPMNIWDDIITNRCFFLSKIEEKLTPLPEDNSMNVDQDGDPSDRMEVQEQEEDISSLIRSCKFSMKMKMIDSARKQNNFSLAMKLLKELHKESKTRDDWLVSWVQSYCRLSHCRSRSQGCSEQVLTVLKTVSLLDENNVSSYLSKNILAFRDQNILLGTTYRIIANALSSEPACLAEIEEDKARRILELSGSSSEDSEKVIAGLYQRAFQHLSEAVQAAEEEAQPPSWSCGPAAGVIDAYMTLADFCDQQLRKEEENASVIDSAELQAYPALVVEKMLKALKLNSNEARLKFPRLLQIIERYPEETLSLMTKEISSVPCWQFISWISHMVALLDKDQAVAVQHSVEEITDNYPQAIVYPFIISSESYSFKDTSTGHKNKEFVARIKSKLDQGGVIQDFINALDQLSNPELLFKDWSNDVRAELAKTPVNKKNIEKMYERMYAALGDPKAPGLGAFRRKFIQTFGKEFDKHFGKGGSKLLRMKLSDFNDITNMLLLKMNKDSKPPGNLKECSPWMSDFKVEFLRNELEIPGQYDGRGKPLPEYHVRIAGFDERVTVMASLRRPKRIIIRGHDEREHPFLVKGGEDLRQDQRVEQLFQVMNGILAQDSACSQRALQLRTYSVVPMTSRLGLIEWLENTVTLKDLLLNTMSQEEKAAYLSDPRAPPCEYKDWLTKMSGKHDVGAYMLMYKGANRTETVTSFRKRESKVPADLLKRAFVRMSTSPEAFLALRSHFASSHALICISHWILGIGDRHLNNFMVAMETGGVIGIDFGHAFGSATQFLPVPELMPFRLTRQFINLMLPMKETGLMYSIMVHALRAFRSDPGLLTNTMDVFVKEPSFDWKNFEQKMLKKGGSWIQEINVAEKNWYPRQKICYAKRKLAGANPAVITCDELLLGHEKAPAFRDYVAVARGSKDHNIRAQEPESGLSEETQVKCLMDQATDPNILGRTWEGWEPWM

| SMILES | IC50 |
| --- | --- |
| NC(=O)C(c1cc(-c2ncnc3cc(N4CCOCC4)ccc23)c(F)cc1Cl)c1ncnn2cccc12 (configuration not stated) | > 30 nM |
| OCc1csc(C(O)c2cc(-c3ncnc4cc(N5C6CCC5COC6)ccc34)c(F)cc2Cl)n1 (configuration not stated) | > 30 nM |
